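Following 48 hours of exposure in 96-well plates, responses at five concentrations were used to interpolate endpoints linearly. GI50 marks 50% less growth.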 Calls of active or inactive are those of the source. Rule as the data show it: active = GI50 up to about 1.1 µM and inactive = higher.

Among the test systems are A549; ACHN; CCRF-CEM; COLO 205; DU-145; HCC 2998; HCT-116; HL-60; IGROV-1; MDA-MB-231; NCI-H23; OVCAR-4; OVCAR-5; OVCAR-8; RPMI-8226; SF-539; SK-OV-3; T47D; TK-10; UACC-257.
What all share (test): NCI-60 cell line screen, 48 h

As for `O=C(CNc1ccccc1[N+](=O)[O-])Nn1c(-c2ccccc2)nc2ccccc2c1=O`, the GI50 was 43.5 µM (inactive) in the assay with A549; 22.2 µM (inactive) with ACHN; 15.8 µM (inactive) with CCRF-CEM; 20.6 µM (inactive) in the assay with COLO 205; 28.7 µM (inactive) in the assay on DU-145; 13.5 µM (inactive) in the assay with HCC 2998. Moreover, the GI50 was 16.1 µM (inactive) in the assay on HCT-116; 31.7 µM (inactive) in the assay on HL-60; 16.3 µM (inactive) in the assay on IGROV-1; 15.7 µM (inactive) with MDA-MB-231; 25.8 µM (inactive) in the assay with NCI-H23; 17 µM (inactive) in the assay on OVCAR-4. The GI50 with OVCAR-5 was 22.3 µM (inactive); in the assay on OVCAR-8, 33.8 µM (inactive); with RPMI-8226, 20.9 µM (inactive); with SF-539, 19.7 µM (inactive); in the assay on SK-OV-3, 30.7 µM (inactive); with T47D it was 17.3 µM (inactive). The GI50 in the assay on TK-10 and in the assay with UACC-257 was > 10 µM (inactive) each time.

As to `CCOC(=O)c1ccc(Nc2c3c(nc4ccccc24)CCCC3)cc1`, the GI50 is > 38.6 µM (inactive) in the assay on A549; > 91.4 µM (inactive) in the assay on ACHN; 14.2 µM (inactive) in the assay with CCRF-CEM; > 100 µM (inactive) with COLO 205; > 57.9 µM (inactive) in the assay on DU-145; > 56.4 µM (inactive) in the assay with HCC 2998. Moreover, the GI50 in the assay with HCT-116 is > 34.3 µM (inactive); with HL-60, 3.22 µM (inactive); in the assay on IGROV-1, 4.91 µM (inactive); in the assay with MDA-MB-231, 26.6 µM (inactive); with NCI-H23, > 47.9 µM (inactive); in the assay on OVCAR-4, 46.7 µM (inactive). Besides, the GI50 was > 60 µM (inactive) in the assay on OVCAR-5; 44.7 µM (inactive) with OVCAR-8; > 100 µM (inactive) in the assay on RPMI-8226; 48.9 µM (inactive) in the assay with SF-539; > 66.2 µM (inactive) in the assay on SK-OV-3; 8.51 µM (inactive) with T47D. The GI50 in the assay with TK-10 was > 74.1 µM (inactive); with UACC-257 it was > 86.1 µM (inactive).

As for `COc1ccccc1/C=C/c1cnccn1`, the GI50 with A549, in the assay on ACHN, in the assay on CCRF-CEM, with COLO 205, with DU-145 and in the assay with HCC 2998 was > 10 µM (inactive) each time. The GI50 with HCT-116, in the assay on HL-60, with IGROV-1, in the assay on MDA-MB-231, with NCI-H23 and with OVCAR-4 was > 10 µM (inactive) in each case. Further, the GI50 with OVCAR-5, in the assay on OVCAR-8, with RPMI-8226, with SF-539, with SK-OV-3 and with T47D was > 10 µM (inactive) throughout. Moreover, the GI50 in the assay on TK-10 and with UACC-257 was > 10 µM (inactive) in each case.

`NS(=O)(=O)c1ccc(/N=N/c2ccc(O)c(O)c2)cc1`: the GI50 is 20.3 µM (inactive) in the assay on A549; 3.22 µM (inactive) in the assay on ACHN; 3.56 µM (inactive) with CCRF-CEM; 20.7 µM (inactive) in the assay with COLO 205; 31 µM (inactive) in the assay on DU-145; 21.2 µM (inactive) with HCC 2998. The GI50 in the assay on HCT-116 was 9.71 µM (inactive); with HL-60, 16.9 µM (inactive); with IGROV-1 it was 11.7 µM (inactive); in the assay on MDA-MB-231, 10.7 µM (inactive); in the assay on NCI-H23 it was 17 µM (inactive); with OVCAR-4 it was 5.98 µM (inactive). Also, the GI50 with OVCAR-5 is 48.6 µM (inactive); in the assay with OVCAR-8, 4.88 µM (inactive); in the assay on RPMI-8226, 10.7 µM (inactive); in the assay with SF-539, 15.9 µM (inactive); with SK-OV-3, 23.3 µM (inactive); in the assay on T47D, 34.8 µM (inactive). Besides, the GI50 was 24.6 µM (inactive) in the assay with TK-10 and 24.3 µM (inactive) in the assay with UACC-257.

As for `O=c1c2cc(I)ccc2nc(SCc2nnco2)n1Cc1ccccc1`, the GI50 in the assay with A549 is > 100 µM (inactive); in the assay with ACHN it was > 100 µM (inactive); with CCRF-CEM it was 10.8 µM (inactive); in the assay on COLO 205, > 100 µM (inactive); in the assay on DU-145, > 100 µM (inactive); in the assay on HCC 2998, 96.2 µM (inactive). Further, the GI50 in the assay with HCT-116 was > 100 µM (inactive); with HL-60, 17.4 µM (inactive); in the assay on IGROV-1, 80.7 µM (inactive); in the assay with MDA-MB-231, 78.5 µM (inactive); with NCI-H23, > 100 µM (inactive); in the assay with OVCAR-4, > 100 µM (inactive). The GI50 with OVCAR-5, in the assay on OVCAR-8, with RPMI-8226, in the assay with SF-539, in the assay on SK-OV-3 and in the assay on T47D was > 100 µM (inactive) each time. The GI50 in the assay with TK-10 is 87.9 µM (inactive); in the assay with UACC-257, > 100 µM (inactive).

As to `CC1=C(/C=C/C(C)=C/C=C/C(C)=C/C(=O)Nc2ccc(O)cc2)C(C)(C)CCC1` [FENRETINIDE], the GI50 in the assay on A549 was 5.97 µM (inactive); in the assay with ACHN, 4.19 µM (inactive); with CCRF-CEM it was 0.057 µM (active); with COLO 205 it was 2.61 µM (inactive); in the assay with DU-145 it was 7.6 µM (inactive); in the assay with HCC 2998, 4.16 µM (inactive). Further, the GI50 in the assay with HCT-116 was 4.06 µM (inactive); with HL-60, 0.893 µM (active); in the assay with IGROV-1 it was 2.02 µM (inactive); in the assay on MDA-MB-231, 2.95 µM (inactive); in the assay with NCI-H23 it was 2.06 µM (inactive); in the assay with OVCAR-4 it was 3.94 µM (inactive). Moreover, the GI50 with OVCAR-5 was 10.6 µM (inactive); with OVCAR-8, 3.61 µM (inactive); in the assay on RPMI-8226, 1.65 µM (inactive); in the assay on SF-539 it was 1.05 µM (active); in the assay with SK-OV-3, 6.68 µM (inactive); with T47D, 2.7 µM (inactive). The figures for the GI50 with TK-10 and with UACC-257 were 16.1 µM (inactive) and 9.71 µM (inactive), respectively.

Values taken from ChEMBL document CHEMBL1201862, “PubChem BioAssay data set” (2004).
